Assay results taken from ChEMBL document CHEMBL4725295, “Synthesis and matched molecular pair analysis of covalent reversible inhibitors of the cysteine protease CPB” (Bioorg Med Chem Lett, 2020).

Assays:
[1] = Covalent reversible inhibition of Leishmania cysteine protease B using Z-Phe-Arg-7-amido-4-methylcoumarin as substrate incubated for 2 mins followed by substrate addition by fluorescence assay
Leishmania = experiment: Covalent reversible inhibition of Leishmania cysteine protease B using Z-Phe-Arg-7-amido-4-methylcoumarin as substrate incubated for 2 mins followed by substrate addition by fluorescence assay relative to control; set-up: concentration or dose not given beside the values
Cathepsin B [2] = target: T1, Cathepsin B (Homo sapiens, UniProt P07858); experiment: Inhibition of human cathepsin B
Cathepsin B [3] = target: T1, Cathepsin B; experiment: Inhibition of human cathepsin B relative to control

| Compound | Ki [1] [µM] | pKi [1] | inhibition (Leishmania) [%] | Ki (Cathepsin B [2]) [µM] | inhibition (INH) (Cathepsin B [3]) [%] |
| --- | --- | --- | --- | --- | --- |
| N#CC1(NC(=O)[C@H](Cc2ccccc2)N[C@H](c2ccccc2)C(F)(F)F)CC1 | 1.41 | 5.85 | – | – | – |
| COc1ccc([C@@H](N[C@H](Cc2ccccc2)C(=O)NC2(C#N)CC2)C(F)(F)F)cc1 | > 10 | < 5 | 95 | – | – |
| COc1ccc([C@H](N[C@H](Cc2ccccc2)C(=O)NC2(C#N)CC2)C(F)(F)F)cc1 | > 10 | < 5 | 95 | – | – |
| N#CC1(NC(=O)[C@H](Cc2ccccc2)N[C@@H](c2ccc(Br)cc2)C(F)(F)F)CC1 | 0.151 | 6.82 | – | > 10 | > 95 |
| COc1ccc([C@@H](N[C@@H](Cc2ccccc2)C(=O)NC2(C#N)CC2)C(F)(F)F)cc1 | > 10 | < 5 | 70 | – | – |
| N#CC1(NC(=O)[C@H](Cc2ccccc2)N[C@H](c2ccc(Br)cc2)C(F)(F)F)CC1 | 0.595 | 6.23 | – | – | – |
| N#CC1(NC(=O)[C@@H](Cc2ccccc2)N[C@@H](c2ccccc2)C(F)(F)F)CC1 | 4.4 | 5.37 | – | – | – |
| Cc1ccc([C@@H](N[C@@H](Cc2ccccc2)C(=O)NC2(C#N)CC2)C(F)(F)F)cc1 | 1.5 | 5.8 | – | > 10 | 92 |
| COc1ccc([C@H](N[C@@H](Cc2ccccc2)C(=O)NC2(C#N)CC2)C(F)(F)F)cc1 | 3.23 | 5.5 | – | – | – |
| N#CC1(NC(=O)[C@@H](Cc2ccccc2)N[C@H](c2ccccc2)C(F)(F)F)CC1 | 7.65 | 5.11 | – | – | – |
| Cc1ccc([C@@H](N[C@H](Cc2ccccc2)C(=O)NC2(C#N)CC2)C(F)(F)F)cc1 | > 10 | < 5 | 88 | – | – |
| N#CC1(NC(=O)[C@H](Cc2ccccc2)N[C@@H](c2ccccc2)C(F)(F)F)CC1 | 1.7 | 5.77 | – | > 10 | 74.5 |
| N#CC1(NC(=O)[C@@H](Cc2ccccc2)N[C@H](c2ccc(Br)cc2)C(F)(F)F)CC1 | 0.795 | 6.1 | – | > 10 | > 95 |
| N#CC1(NC(=O)[C@@H](Cc2ccccc2)N[C@@H](c2ccc(Br)cc2)C(F)(F)F)CC1 | > 10 | < 5 | – | – | – |
| Cc1ccc([C@H](N[C@@H](Cc2ccccc2)C(=O)NC2(C#N)CC2)C(F)(F)F)cc1 | 4.07 | 5.4 | – | – | – |
| Cc1ccc([C@H](N[C@H](Cc2ccccc2)C(=O)NC2(C#N)CC2)C(F)(F)F)cc1 | > 10 | < 5 | 86 | – | – |
